Laboratory results as given in ChEMBL document CHEMBL1201862, “PubChem BioAssay data set” (2004).
Activity calls are given as the source filed them.

Tests used:
Coagulation factor XII = target: T1, Coagulation factor XII (Homo sapiens, UniProt P00748); type: functional;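 also: activated factor XIIa alpha cleaving a fluorogenic AMC peptide substrate; inhibitor potency from loss of enzyme activity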
T1 sequence (P00748 whole entry): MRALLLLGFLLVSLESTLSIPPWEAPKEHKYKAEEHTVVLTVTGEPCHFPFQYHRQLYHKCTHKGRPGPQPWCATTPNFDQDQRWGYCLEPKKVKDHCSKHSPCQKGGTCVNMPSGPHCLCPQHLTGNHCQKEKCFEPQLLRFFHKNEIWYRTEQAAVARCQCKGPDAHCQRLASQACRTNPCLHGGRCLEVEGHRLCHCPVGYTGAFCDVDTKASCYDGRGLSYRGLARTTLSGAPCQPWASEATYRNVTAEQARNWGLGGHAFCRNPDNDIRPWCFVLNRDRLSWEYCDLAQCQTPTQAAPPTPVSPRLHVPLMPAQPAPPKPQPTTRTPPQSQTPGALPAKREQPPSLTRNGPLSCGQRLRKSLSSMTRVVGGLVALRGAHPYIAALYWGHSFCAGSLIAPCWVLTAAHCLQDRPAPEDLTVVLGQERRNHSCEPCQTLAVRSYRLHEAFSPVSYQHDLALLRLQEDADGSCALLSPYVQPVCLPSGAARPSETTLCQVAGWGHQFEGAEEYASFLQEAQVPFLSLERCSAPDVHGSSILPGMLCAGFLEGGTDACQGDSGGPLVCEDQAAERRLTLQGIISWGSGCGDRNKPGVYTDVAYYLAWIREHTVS

Bcl-2-related protein A1 = target: T2, Bcl-2-related protein A1 (Mus musculus, UniProt Q07440); type: functional;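 also: confirmatory dose–response counterscreen on Bfl-1, used to check hits from a UBC13 polyubiquitin inhibitor campaign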
T2 sequence (Q07440 whole entry): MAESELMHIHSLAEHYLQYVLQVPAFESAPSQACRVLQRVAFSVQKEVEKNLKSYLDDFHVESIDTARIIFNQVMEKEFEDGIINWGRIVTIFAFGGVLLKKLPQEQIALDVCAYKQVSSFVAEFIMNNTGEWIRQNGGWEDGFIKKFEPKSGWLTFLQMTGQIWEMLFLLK

[1] = target: T3, Ubiquitin-conjugating enzyme E2 N (Homo sapiens, UniProt P61088); type: functional
T3 sequence (P61088 whole entry): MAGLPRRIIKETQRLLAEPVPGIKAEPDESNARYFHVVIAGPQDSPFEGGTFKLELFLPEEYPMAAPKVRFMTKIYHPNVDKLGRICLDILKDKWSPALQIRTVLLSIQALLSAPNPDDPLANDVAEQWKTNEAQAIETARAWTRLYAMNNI

[2] = target: T3, Ubiquitin-conjugating enzyme E2 N; type: functional; remark: listed apart in the source
[3] = target: T4, Alkaline phosphatase, tissue-nonspecific isozyme (Homo sapiens, UniProt P05186); experiment: potency against alkaline phosphatase TNAP – biochemical, luminescent, dose response, SAR follow-up (AID 1056)
T4 sequence (P05186 whole entry): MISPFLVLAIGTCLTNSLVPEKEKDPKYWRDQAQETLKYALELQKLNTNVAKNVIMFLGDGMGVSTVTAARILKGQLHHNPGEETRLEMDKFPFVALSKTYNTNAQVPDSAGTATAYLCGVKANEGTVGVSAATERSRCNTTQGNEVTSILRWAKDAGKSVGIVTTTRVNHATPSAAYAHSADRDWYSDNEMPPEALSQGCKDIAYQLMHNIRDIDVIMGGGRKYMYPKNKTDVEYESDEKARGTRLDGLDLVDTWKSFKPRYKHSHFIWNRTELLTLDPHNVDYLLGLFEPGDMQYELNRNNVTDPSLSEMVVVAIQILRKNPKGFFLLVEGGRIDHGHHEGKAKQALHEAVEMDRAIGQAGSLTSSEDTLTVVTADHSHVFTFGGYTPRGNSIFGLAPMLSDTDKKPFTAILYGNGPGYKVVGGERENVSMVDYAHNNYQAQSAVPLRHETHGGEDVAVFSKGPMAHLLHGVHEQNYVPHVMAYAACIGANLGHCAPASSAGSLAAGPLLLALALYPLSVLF

HEK293 [4] = experiment: inhibition of NOD1-driven NF-kB reporter – cell-based, luminescence, uHTS, primary screen (AID 1578); type: functional; conditions: Homo sapiens
HEK293 [5] = experiment: cells; type: functional, cell-based; conditions: Homo sapiens
HEK293 [6] = experiment: NOD2 signaling inhibitors in MDP-stimulated cells, cell-based, uHTS, luminescence (AID 2001); type: functional; conditions: Homo sapiens
[7] = target: Glucose-6-phosphate 1-dehydrogenase (Homo sapiens, UniProt P11413); experiment: inhibition of Homo sapiens G6PD, dose series – biochemical, fluorescence, selectivity assay for P. falciparum G6PD inhibitor project, dose response (AID 504792); type: functional
Genome polyprotein = Genome polyprotein (dengue virus type 2, UniProt P29990); experiment: flavivirus cap methylation enzyme inhibition – biochemical, confirmation dose response, primary screen (AID 588689); type: functional
[8] = target: FAD-linked sulfhydryl oxidase ALR (Homo sapiens, UniProt P55789); experiment: ALR-catalysed DTT oxidation blockers – biochemical, H2O2 detection, luminescence, cherry-pick, dose response (AID 493248)
[9] = target: DNA dC->dU-editing enzyme APOBEC-3G (Homo sapiens, UniProt Q9HC16); experiment: Dose Response confirmation of small molecule APOBEC3G DNA Deaminase Inhibitors via a fluorescence-based single-stranded DNA deaminase assay. [Related pubchem assays (depositor defined):AID493012, AID493028]; type: functional
Large T antigen = Large T antigen (Simian virus 40, UniProt P03070); type: functional, Betapolyomavirus macacae;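 also: Confirmatory-stage PubChem screen for compounds that inhibit SV40 T antigen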
[10] = target: ATP-dependent molecular chaperone HSP82 (Candida albicans (strain WO-1) (Yeast), UniProt C4YTQ8); experiment: steroid-induced GRE reporter decrease in yeast – S. cerevisiae, luminescence, Hsp90 inhibitor project, dose response (AID 2400); type: functional, cell-based;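 also: beta-galactosidase luminescence from glucocorticoid response element reporter as proxy for Hsp90 function; inhibitor potency where signal loss means Hsp90 inhibition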
[11] = target: T5, Serine/threonine-protein phosphatase (Candida dubliniensis (strain CD36 / CBS 7987 / NCPF 3949 / NRRLY-17841) (Yeast), UniProt B9W6M3); experiment: blockers of CaCl2-induced CDRE-lacZ signaling – S. cerevisiae, luminescence, secondary, dose response (AID 2388); type: functional, cell-based;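 also: yeast reporter cells carrying a calcineurin-responsive lacZ construct stimulated with calcium chloride; luminescent beta-galactosidase reporter signal in whole cells rather than isolated phosphatase activity; potency for inhibition where a drop in reporter signal means calcineurin blockade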
T5 sequence (B9W6M3 whole entry): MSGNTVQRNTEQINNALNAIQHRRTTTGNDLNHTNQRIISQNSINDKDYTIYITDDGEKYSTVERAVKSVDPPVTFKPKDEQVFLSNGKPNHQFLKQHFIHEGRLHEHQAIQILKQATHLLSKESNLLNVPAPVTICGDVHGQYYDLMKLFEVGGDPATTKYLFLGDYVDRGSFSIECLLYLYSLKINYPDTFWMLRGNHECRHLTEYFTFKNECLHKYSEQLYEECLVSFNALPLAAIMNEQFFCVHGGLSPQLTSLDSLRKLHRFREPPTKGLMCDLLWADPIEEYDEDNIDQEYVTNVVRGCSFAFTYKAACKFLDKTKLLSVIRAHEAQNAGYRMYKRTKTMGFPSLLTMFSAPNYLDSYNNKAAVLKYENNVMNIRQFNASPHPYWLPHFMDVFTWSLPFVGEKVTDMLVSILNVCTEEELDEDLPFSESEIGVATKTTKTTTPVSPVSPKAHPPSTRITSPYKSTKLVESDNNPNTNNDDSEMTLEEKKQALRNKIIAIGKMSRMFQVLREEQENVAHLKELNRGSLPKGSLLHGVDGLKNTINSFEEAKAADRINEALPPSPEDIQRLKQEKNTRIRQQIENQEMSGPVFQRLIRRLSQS

[12] = fluconazole-exposed Candida albicans growth modulators – fluorescence, retest, confirmation (AID 2467); type: functional, cell-based
[13] = target: Heat shock protein HSP 90-alpha (Homo sapiens, UniProt P07900); type: functional, organism-based
[14] = NIH-3T3 fibroblast cytotoxicity, dose response, cytotoxicity control, cell-based, fluorescence, Alamar Blue, secondary assay (AID 2327); type: functional;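 also: NIH-3T3 mouse fibroblasts cultured with fluconazole at 8 µg/mL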
[15] = target: Glyceraldehyde-3-phosphate dehydrogenase (Homo sapiens, UniProt P04406)
[16] = target: 5-hydroxytryptamine receptor 5A (Homo sapiens, UniProt P47898); experiment: Counterscreen for agonists of OPRM1-OPRD1 heterodimerization: luminescence-based cell-based high throughput dose response assay to identify agonists of 5-hydroxytryptamine (serotonin) 5A receptor (HTR5A). [Related pubchem assays (depositor defined):AID504326, AID504355, AID504692, AID504904, AID504905]; type: functional
Mu-type opioid receptor = Mu-type opioid receptor (Homo sapiens, UniProt P35372); experiment: (§1) Counterscreen for agonists of heterodimerization of the mu 1 (OPRM1) and delta 1 (OPRD1) opioid receptors: Luminescence-based cell-based high throughput dose response assay to identify agonists of OPRM1 homodimerization.; type: functional
[17] = target: Delta-type opioid receptor (Homo sapiens, UniProt P41143); experiment: as §1, with “of OPRD1” for “of OPRM1”, “homodimerization. [Related pubchem assays (depositor defined):AID504326, AID504355, AID504692, AID504904, AID504905]” for “homodimerization.”; type: functional
[18] = Luminescence Cell-Based Dose Response HTS to Identify Inhibitors of 5'UTR Stem-Loop Driven Prion Protein mRNA Translation in H4 Neuroglioblastoma Cells. [Related pubchem assays: 1827 (Project Summary), 1813 (Primary HTS)]; type: functional
[19] = luciferase reporter signal suppression in cells – H4 neuroglioma cells, luminescence, dose response (AID 1990); type: functional, cell-based
Streptococcus = experiment: GAS UMAA2166 growth inhibition – luminescence, BacTiterGlo, counter-screen for streptokinase expression inhibitor project, dose response (AID 1915); type: functional, organism-based;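 also: potency for reduction of bacterial viability or growth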
[20] = alpha-synuclein stem-loop luciferase translation blockers – H4 neuroglioma cells, luminescence, confirmation (AID 1988); type: functional, cell-based
INS1 = experiment: INS-1E survival protection against cytokine death – cell-based, luminescence, retest, dose response (AID 449756); type: functional; conditions: Rattus norvegicus;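 also: cell death triggered by IL-1 beta plus TNF-alpha plus IFN-gamma mixture; protective hits raise ATP signal compared with cytokine alone wells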
[21] = system: Streptococcus sp. 'group A'; experiment: Streptococcus pyogenes SK(-)GAS viability under kanamycin – luminescence, BacTiterGlo, confirmation, counter-screen for streptokinase expression inhibitor project, dose response (AID 1900); type: functional, organism-based

Sequence of Glucose-6-phosphate 1-dehydrogenase (P11413 whole entry): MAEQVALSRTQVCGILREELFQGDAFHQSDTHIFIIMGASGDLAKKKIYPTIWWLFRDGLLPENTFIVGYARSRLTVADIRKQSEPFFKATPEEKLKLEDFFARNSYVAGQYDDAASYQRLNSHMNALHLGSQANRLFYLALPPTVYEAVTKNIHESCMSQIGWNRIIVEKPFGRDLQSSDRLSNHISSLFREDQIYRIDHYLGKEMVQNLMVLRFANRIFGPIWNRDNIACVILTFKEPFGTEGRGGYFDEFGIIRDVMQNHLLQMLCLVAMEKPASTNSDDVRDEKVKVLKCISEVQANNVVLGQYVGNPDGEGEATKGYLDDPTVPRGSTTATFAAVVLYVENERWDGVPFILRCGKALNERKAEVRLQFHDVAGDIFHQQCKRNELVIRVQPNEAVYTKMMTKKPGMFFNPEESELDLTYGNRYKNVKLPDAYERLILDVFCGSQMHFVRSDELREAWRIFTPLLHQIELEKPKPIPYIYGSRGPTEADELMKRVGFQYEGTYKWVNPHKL
Sequence of Delta-type opioid receptor (P41143 whole entry): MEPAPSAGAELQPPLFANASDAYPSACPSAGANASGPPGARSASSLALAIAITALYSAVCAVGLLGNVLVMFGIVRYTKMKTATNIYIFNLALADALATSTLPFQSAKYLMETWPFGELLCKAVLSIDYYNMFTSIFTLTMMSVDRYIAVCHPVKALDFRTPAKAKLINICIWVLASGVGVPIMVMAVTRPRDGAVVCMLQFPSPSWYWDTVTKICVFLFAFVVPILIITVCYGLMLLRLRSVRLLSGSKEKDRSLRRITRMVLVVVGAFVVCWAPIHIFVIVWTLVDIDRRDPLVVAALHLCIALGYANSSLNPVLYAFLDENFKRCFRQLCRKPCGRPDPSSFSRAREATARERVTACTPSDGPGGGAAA
Sequence of 5-hydroxytryptamine receptor 5A (P47898 whole entry): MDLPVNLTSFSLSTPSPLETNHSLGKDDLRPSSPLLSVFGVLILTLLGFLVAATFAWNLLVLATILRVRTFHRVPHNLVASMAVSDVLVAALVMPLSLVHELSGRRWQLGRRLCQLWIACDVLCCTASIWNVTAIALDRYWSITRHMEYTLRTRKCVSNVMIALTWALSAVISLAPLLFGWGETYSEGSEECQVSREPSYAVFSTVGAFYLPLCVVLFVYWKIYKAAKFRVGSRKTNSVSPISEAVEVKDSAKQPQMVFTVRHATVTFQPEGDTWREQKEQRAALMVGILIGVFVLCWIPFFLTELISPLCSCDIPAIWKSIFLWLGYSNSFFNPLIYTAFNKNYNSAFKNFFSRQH
Sequence of Mu-type opioid receptor (P35372 whole entry): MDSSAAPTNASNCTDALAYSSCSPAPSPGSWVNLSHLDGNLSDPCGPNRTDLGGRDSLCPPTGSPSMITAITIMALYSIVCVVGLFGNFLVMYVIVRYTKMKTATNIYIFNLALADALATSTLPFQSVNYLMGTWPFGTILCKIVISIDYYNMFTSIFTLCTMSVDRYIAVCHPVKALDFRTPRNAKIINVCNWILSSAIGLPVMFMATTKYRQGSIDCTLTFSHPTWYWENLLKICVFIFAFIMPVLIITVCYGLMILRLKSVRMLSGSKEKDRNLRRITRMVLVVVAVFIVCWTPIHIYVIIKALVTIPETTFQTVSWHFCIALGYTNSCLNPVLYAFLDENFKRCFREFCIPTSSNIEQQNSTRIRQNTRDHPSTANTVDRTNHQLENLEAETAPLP
Sequence of ATP-dependent molecular chaperone HSP82 (C4YTQ8 whole entry): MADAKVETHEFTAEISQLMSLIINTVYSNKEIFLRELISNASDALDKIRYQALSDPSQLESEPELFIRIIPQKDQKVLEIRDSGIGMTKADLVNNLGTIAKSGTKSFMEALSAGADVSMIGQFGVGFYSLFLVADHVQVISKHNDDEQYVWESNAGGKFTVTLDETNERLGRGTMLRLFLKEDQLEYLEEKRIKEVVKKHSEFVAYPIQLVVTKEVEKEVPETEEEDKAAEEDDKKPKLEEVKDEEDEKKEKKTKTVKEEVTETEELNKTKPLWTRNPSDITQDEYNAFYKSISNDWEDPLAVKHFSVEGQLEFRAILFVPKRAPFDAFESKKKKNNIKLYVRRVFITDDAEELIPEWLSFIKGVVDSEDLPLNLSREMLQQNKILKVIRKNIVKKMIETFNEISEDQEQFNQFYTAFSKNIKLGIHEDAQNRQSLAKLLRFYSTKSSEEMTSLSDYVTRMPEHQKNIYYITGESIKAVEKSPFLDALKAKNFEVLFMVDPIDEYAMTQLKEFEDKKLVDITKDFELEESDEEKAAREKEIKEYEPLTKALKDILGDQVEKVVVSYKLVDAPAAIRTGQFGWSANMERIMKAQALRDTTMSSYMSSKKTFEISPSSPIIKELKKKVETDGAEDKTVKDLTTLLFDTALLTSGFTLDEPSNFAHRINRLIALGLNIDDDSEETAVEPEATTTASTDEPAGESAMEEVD
Sequence of FAD-linked sulfhydryl oxidase ALR (P55789 whole entry): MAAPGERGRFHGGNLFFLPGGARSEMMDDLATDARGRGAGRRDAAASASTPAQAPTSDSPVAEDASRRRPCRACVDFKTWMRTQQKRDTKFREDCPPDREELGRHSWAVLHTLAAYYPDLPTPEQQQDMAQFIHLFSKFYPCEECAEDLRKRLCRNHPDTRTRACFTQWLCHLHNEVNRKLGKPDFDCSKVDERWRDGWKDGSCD
Sequence of DNA dC->dU-editing enzyme APOBEC-3G (Q9HC16 whole entry): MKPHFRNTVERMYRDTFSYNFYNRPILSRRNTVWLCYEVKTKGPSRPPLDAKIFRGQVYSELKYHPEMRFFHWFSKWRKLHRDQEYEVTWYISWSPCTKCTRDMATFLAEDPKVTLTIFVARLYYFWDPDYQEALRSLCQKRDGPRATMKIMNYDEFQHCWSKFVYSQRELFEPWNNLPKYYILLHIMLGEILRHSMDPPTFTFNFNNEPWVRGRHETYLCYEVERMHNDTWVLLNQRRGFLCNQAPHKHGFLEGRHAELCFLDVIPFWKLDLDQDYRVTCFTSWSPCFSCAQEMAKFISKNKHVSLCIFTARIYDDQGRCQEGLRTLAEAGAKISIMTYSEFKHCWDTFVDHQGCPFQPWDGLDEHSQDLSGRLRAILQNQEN
Sequence of Glyceraldehyde-3-phosphate dehydrogenase (P04406 whole entry): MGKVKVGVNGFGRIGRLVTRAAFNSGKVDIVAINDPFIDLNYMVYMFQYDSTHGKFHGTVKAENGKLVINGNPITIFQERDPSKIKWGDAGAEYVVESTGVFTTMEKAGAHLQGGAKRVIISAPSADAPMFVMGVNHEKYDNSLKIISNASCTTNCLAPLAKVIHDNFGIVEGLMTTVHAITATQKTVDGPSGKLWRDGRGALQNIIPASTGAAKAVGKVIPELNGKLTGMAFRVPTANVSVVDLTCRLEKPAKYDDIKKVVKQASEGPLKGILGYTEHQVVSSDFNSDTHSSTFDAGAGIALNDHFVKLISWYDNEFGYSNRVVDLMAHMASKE
Sequence of Genome polyprotein (P29990 2492-3391 limits assumed): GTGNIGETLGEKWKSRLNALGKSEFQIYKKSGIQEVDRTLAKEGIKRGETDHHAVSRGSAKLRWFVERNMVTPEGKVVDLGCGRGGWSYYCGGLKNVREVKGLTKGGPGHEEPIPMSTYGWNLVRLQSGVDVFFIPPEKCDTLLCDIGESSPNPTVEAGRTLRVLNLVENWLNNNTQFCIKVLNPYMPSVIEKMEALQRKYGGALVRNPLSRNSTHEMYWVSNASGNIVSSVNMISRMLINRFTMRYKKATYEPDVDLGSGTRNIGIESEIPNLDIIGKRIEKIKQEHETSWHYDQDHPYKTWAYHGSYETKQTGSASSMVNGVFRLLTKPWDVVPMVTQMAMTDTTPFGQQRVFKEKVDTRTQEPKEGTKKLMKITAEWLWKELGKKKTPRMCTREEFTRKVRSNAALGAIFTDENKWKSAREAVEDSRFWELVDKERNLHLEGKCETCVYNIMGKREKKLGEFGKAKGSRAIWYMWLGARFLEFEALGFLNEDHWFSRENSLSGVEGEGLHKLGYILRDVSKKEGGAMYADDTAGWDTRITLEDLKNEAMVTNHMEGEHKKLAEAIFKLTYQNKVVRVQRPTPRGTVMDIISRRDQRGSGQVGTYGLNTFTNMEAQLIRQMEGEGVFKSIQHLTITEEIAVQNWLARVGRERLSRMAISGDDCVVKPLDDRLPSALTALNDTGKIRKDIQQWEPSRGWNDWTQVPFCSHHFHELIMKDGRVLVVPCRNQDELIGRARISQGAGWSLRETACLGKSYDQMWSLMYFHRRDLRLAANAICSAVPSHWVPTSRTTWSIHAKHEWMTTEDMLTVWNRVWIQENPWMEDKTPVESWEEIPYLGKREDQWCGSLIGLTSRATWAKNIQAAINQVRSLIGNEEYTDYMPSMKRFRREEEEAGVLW
Sequence of Large T antigen (P03070 whole entry): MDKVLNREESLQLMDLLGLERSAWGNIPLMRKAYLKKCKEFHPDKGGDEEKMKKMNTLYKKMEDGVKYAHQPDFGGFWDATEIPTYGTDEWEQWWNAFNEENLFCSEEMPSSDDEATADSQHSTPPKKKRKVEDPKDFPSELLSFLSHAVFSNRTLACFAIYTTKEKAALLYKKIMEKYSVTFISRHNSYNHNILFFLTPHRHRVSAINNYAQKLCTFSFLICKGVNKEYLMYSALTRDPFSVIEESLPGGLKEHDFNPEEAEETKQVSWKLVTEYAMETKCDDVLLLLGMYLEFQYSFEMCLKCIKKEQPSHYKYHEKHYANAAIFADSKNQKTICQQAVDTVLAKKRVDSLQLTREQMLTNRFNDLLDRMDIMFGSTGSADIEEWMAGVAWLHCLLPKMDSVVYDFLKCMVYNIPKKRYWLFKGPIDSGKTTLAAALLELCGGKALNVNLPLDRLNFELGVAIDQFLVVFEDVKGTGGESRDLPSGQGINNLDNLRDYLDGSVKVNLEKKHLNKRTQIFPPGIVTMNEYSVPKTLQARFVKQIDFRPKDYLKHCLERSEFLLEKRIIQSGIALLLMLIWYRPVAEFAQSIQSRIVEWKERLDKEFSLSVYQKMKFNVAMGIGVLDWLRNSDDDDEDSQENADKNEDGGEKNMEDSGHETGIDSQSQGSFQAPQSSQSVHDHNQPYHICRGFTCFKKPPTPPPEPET

SMILES: CSc1ccccc1C(=O)C1CCCN(S(=O)(=O)N(C)C)C1 (stereo not drawn)
- IC50 (Coagulation factor XII): > 50 µM (inactive)

SMILES: COc1ccc(-c2oc3ncnc(N)c3c2-c2ccccc2)cc1
- IC50 (Bcl-2-related protein A1): > 20 µM (inactive)
- IC50 [1]: 7.81 µM (active)
- IC50 [2]: 3.58 µM (active)

SMILES: COc1ccc(C(C)(C)C)cc1S(=O)(=O)Nc1cccnc1
- IC50 [3]: 26.4 µM (active)

SMILES: COc1ccccc1NS(=O)(=O)c1cccc(NC(=O)c2ccc3ccccc3n2)c1
- EC50 (HEK293 [4]): 6.61 µM (active)
- IC50 (HEK293 [5]): > 20 µM (inactive)
- IC50 (HEK293 [6]): 7.38 µM (active)

SMILES: NS(=O)(=O)c1ccc(-c2ccc(C=C3C(=O)NC(=O)NC3=O)o2)cc1
- IC50 [7]: 27.4 µM (inactive)
- IC50 (Genome polyprotein): > 100 µM (active)
- AC50 [8]: 1.16 µM (active)

SMILES: CCN(CC)c1ccc(NC(=O)c2cccc(C)c2)cc1S(=O)(=O)Nc1ccccc1OC
- IC50 [7]: > 80 µM (inactive)
- IC50 [9]: 51.5 µM (active)

SMILES: COc1ccc(C2CC(=O)C(C(c3ccc(O)cc3)C3C(=O)CC(c4ccc(OC)cc4)CC3=O)C(=O)C2)cc1 (stereo not drawn)
- IC50 (Coagulation factor XII): > 50 µM (inactive)
- IC50 (Large T antigen): 37.3 µM (active)

SMILES: Cc1ccc(OCC(=O)NNC(=S)NC(=O)C2CC2)c(C)c1
- EC50 [10]: 14.3 µM (active)
- EC50 [11]: > 180 µM (inactive)
- IC50 (Bcl-2-related protein A1): > 20 µM (inactive)
- EC50 [12]: 1.25 µM (active)
- AC50 [13]: 4.32 µM (active)
- IC50 [1]: 3.27 µM (active)
- EC50 [14]: > 150 µM (inactive)
- IC50 [2]: 1.59 µM (active)

SMILES: O=C(CCCN1C(=O)c2cccc3cccc(c23)C1=O)NCc1cccnc1
- IC50 (Coagulation factor XII): > 50 µM (inactive)

SMILES: CCOc1ccc(S(=O)(=O)Nc2cnc3ccccc3c2)cc1
- IC50 [15]: > 100 µM (not active)
- IC50 [3]: > 100 µM (inactive)

SMILES: CCOC(=O)C1(CCOc2ccccc2)CCN(Cc2ccc(C)s2)CC1
- EC50 [16]: > 92.5 µM (inactive)
- EC50 (Mu-type opioid receptor): > 92.5 µM (inactive)
- EC50 [17]: > 92.5 µM (inactive)

SMILES: COc1cc(Br)cc(/C=N/NC(=O)Cc2ccc(C(F)(F)F)cc2[N+](=O)[O-])c1O
- EC50 [18]: 12.6 µM (active)
- EC50 [16]: > 92.4 µM (inactive)
- EC50 [19]: > 120 µM (not active)
- EC50 (Mu-type opioid receptor): > 92.4 µM (inactive)
- EC50 (Streptococcus): 2.42 µM (active)
- EC50 [20]: 9.21 µM (active)
- AC50 (INS1): 4.33 µM (active)
- EC50 [21]: 1.84 µM (active)
- EC50 [17]: > 92.4 µM (inactive)
